For one test, the system named is rat striatal slices. Conditions: cited from earlier work.
The subject of test [1] is ATP-dependent potassium current (IK(ATP)). The test is described as follows: whole-cell patch-clamp of pinacidil-primed IK(ATP) in isolated ventricular myocytes. The class given is cell-based, guinea pig. As to conditions: for outward current density at +30 mV under control conditions: before pinacidil. The source says: The electrophysiological properties of a cardiac myocyte are strongly affected by its energetic condition. Particularly, the adenosine triphosphate (ATP)-dependent potassium current (IK(ATP)) is known to link bioenergetic metabolism with membrane excitability by sensing intracellular concentrations of ATP and adenosine diphosphate (ADP). Under physiological conditions, ATP-dependent potassium channels (K(ATP)-channels) are predominantly closed due to inhibition by intracellular ATP (ATPi). However, when the ATPi concentration falls below certain values (like in pathological states such as acute myocardial ischaemia), the K(ATP)-channels open. […] Thus, the amount of IK(ATP) activation induced by these drugs serves as an indicator of the intracellular ATP-content.
In this example, guinea pig ventricular myocytes were isolated by Langendorff perfusion using collagenase, as is described in H. M. Piper et al., Culturing of calcium stable adult cardiac myocytes, J. Mol. Cell Cardiol. 14 (1982), pp. 397-412. The isolated myocytes were stored in a cell culture medium M 199 (Sigma™, St. Louis, Mo.), supplemented with 5 μg/ml penicillin and 5 IU/ml of streptomycin and were kept in an incubator at 37° C. All experiments were performed within 24 hours after isolation of the myocytes.
Membrane currents were recorded using the whole-cell single electrode voltage-clamp configuration of the patch-clamp technique (see O. P. Hamill et al., Improved patch-clamp techniques for high-resolution current recording from cells and cell-free membrane patches, Pflüger's Arch. 391 (1981), pp. 85-100) using a List L/M-EPC 7 amplifier (List™, Darmstadt, Germany) as previously described by Pelzmann and coworkers in B. Pelzmann et al., Effects of K^+ channel openers on IK(ATP) of human atrial myocytes at physiological temperatures, Naunyn-Schmiedeberg's Arch. […] Only quiescent rod-shaped cells with clear cross striation were used for voltage-clamp experiments. Cell membrane capacitance (Cm) was determined by integration of the capacitive transient elicited by a 10 mV hyperpolarizing pulse from −50 mV. Cm (up to 100 pF) and series resistance (Rs, by at least 50%) were compensated. Voltage-clamp pulses were generated with an IBM-compatible computer connected to a D/A and A/D converter (Digidata 1200™, Axon Instruments, Foster City, USA). Data acquisition and analyses were performed using pCLAMP 5.7.1 software (Axon Instruments). In order to allow equilibration of the pipette solution with the cytosol, current recordings were started five minutes after rupture of the membrane patch.
Two experimental protocols were used in these examples. Modulation of IK(ATP) by drugs was evaluated as the change of outward current density (current amplitudes divided by Cm (pA/pF) in order to compensate for variations in cell size) at +30 mV in response to a 2 second ramp from −100 to +60 mV (Iramp). Time course of IK(ATP) activation and blockade was studied by recording the holding current at −40 mV (Ihold(−40 mV)). Stock solutions of IK(ATP) channel blocker glibenclamide (Sigma™) and of K(ATP) channel opener pinacidil (Sigma™) were prepared in dimethyl sulfoxide (DMSO). Averaged data are expressed as a mean±standard deviation (or standard error of the mean, SEM), with n=number of cells. Error bars in the figures represent standard deviations (except in FIG. 5).
(§1) Statistical significance was determined by a two-tailed Student's t-test or, if more than two conditions were compared, by one-way analysis of variance (ANOVA) with the LSD (least significant difference) post hoc test. Differences were considered significant when P<0.05.

Another test relates to cardiomyocytes. The test is described as follows: HPLC determination of intracellular adenine nucleotide content of cardiomyocytes. The format is cell-based, guinea pig. Conditions: four hours. As to the method: The analytical method used for the determination of adenine nucleotides was that reported in Hallström, S. et al., “S-nitroso human serum albumin treatment reduces ischemia/reperfusion injury in skeletal muscle via nitric oxide release,” Circulation, 105 (2002), 3023-3038 (“Hallström et al.”). In brief, the only alterations from the analytical method reported by Hallström et al. were as follows: separation was performed on a Hypersil ODS column (5 μm, 250 mm×4 mm I.D.) using a Waters™ 717 plus Autosampler, two constaMetric™ III pumps, a gradient controller (LDC/Milton Roy) and a Waters™ 969 photodiode array detector; detector signals (absorbance at 254 nm) were recorded with an AGC™ Personal Computer; and the program Millennium (Waters™) was used for data requisition and analysis. Cardiomyocytes were deproteinized with 250 μL of 0.4 M/L perchloric acid. After centrifugation (12,000 g), 200 μL of the acid extract were neutralized with 12.5 μL of 2 M potassium carbonate (4° C.). The supernatant (10 μL) obtained after centrifugation was used for High Performance Liquid Chromatography (HPLC) analysis. The pellets of the acid extract were dissolved in 1 mL of 0.1 M sodium hydroxide and further diluted 1:10 with physiologic saline for protein determination (BCA Protein Assay, Pierce). The percentage of living cells was estimated by determining the ratio of the number of rod shaped to rounded myocytes. At least 600 myocytes were counted for each preparation.
as §1

For another test, the system named is PC 12 cells. Conditions: NADH-supplementation of PC 12 cells; cited from earlier work.
Setting [2] is: incubation in amounts equimolar to 400 μg/ml NADH.

The structures appear in SMILES notation. Values joined by “and” are separate entries in the source; they are usually repeats but may differ in a detail not shown here. Equal entries are not always repeated.

Here are results for five compounds from patent publication US20040126751A1 (priority 2002, published 2004).

Turning to `NC(=O)C1=CN(C2OC(COP(=O)([O-])OP(=O)([O-])OCC3OC(n4cnc5c(N)ncnc54)C(O)C3O)C(O)C2O)C=CC1.[Na+].[Na+]` (stereo not drawn) [NADH, β-nicotinamide adenine dinucleotide, reduced form, disodium salt], the dopamine release entry in the test with rat striatal slices is listed as “increase of dopamine release”. For the same compound, the “outward current density at +30 mV after application of pinacidil” value in test [1] (incubation 200 μg/ml, 30 μM pinacidil, 4.3 mM ATPi) is recorded as 25.4±3.97 pA/pF. For the same compound, the “outward current density at +30 mV under control conditions” value in test [1] (incubation 200 μg/ml, 4-6 hours) turned out to be 1.82±0.33 pA/pF; in test [1] (incubation 300 μg/ml, 4-6 hours), 1.72±0.19 pA/pF; in test [1] (incubation 400 μg/ml, 4-6 hours) it was 1.70±0.18 pA/pF; in test [1] (incubation 800 μg/ml, 4-6 hours), 1.76±0.36 pA/pF; in test [1] (incubation 1600 μg/ml, 4-6 hours) it was 2.53±0.49 pA/pF. Further, the “outward current density after washout of pinacidil” value in test [1] (incubation 300 μg/ml) is 1.09±0.14 pA/pF; in test [1] (incubation 800 μg/ml) it was 1.75±0.48 pA/pF. Also, in the test with cardiomyocytes (400 mcg per ml cell culture medium, control 35.35±2.57), the “ATP content in cardiomyocytes” value is 45.59±1.88 nmol/mg protein of living cells. Besides, in the test on cardiomyocytes (400 mcg per ml), the “ADP content in cardiomyocytes compared to control” value is on record as “no significant alteration”. Further, in the test on cardiomyocytes (400 mcg per ml), the “AMP content in cardiomyocytes compared to control” value is “no significant alteration”. Besides, the dopamine production entry with PC 12 cells was “increased dopamine production”.
On to `NC(=O)c1ccc[n+]([C@@H]2O[C@H](COP(=O)([O-])OP(=O)(O)OC[C@H]3O[C@@H](n4cnc5c(N)ncnc54)[C@H](O)[C@@H]3O)[C@@H](O)[C@H]2O)c1` [NAD^+, β-nicotinamide adenine dinucleotide, oxidized form], for which, in test [1] (setting [2]), the “outward current density after washout of pinacidil” value was found to be 1.44±0.25 pA/pF, the “outward current density at +30 mV after addition of 30 μM pinacidil” value is on record as 29.0±7.01 pA/pF and the “outward current density at +30 mV under control conditions” value was found to be 1.96±0.20 pA/pF.
Consider `COc1ccc(Cl)cc1C(=O)NCCc1ccc(S(=O)(=O)NC(=O)NC2CCCCC2)cc1` [glibenclamide], for which the “inhibition of pinacidil-activated IK(ATP)” value in test [1] (1 μM glibenclamide after 30 μM pinacidil) was “completely inhibited”. Besides, the “effect on basal Iramp” value in test [1] (physiological conditions, 4.3 mM ATPi, data not shown) was “did not affect Iramp”.
For the compound `NC(=O)c1cccnc1` [nicotinamide], in test [1] (setting [2]), the “outward current density after washout of pinacidil” value was 1.13±0.15 pA/pF, the “outward current density at +30 mV after addition of 30 μM pinacidil” value came to 30.5±4.83 pA/pF and the “outward current density at +30 mV under control conditions” value worked out at 2.01±0.36 pA/pF.
On to `CC(N/C(=N\C#N)Nc1ccncc1)C(C)(C)C` (stereo not drawn) [pinacidil], for which the “outward current density at +30 mV (Iramp)” value is 52.2±13.8 pA/pF in test [1] (30 μM pinacidil, 1 mM ATPi); 28.9±3.38 pA/pF and 28.3±3.26 pA/pF in test [1] (30 μM pinacidil, 4.3 mM ATPi, control myocytes). Also, the “outward current density at +30 mV after washout” value in test [1] (after washout of 30 μM pinacidil (5 minutes), control myocytes) was 1.81±0.22 pA/pF and 1.81±0.21 pA/pF.
